System: Lolium multiflorum
Test: Further glasshouse test versus other ACCase-inhibiting herbicides, Table B2-1
Type: in vivo
Settings: 21 days after application
From the text: Further tests were employed to test the efficacy of a compound of Formula I versus other ACCase-inhibiting herbicides. The five main targets were Lolium multiflorum, Eleusine indica, Digitaria insularis, Sorghum halepense and Echinochloa crus-galli. Collectively, the populations contained all the major target-site resistance mutations affecting ACCase herbicides. Two L. multiflorum (LM-NTSR-1 and LM-NTSR-2) and one E. crus-galli (ECG-NTSR-1) populations were characterised exclusively by non-target-site resistance (“NTSR”). The target-site resistant L. multiflorum and E. indication populations were 100% homozygous for different ACCase mutations whilst the D. insularis, S. halepense and E. crus-galli samples contained a mixture of homozygous wild and mutant individuals at different genotypic frequencies. Additional underlying NTSR cannot be ruled out in the populations characterised by target-site resistance.
Around 50 seeds of each of the 24 weed populations were sown in 12-cm pots containing a mixture of peat and compost in a 1:1 ratio. The pots were watered, fertilised and kept in controlled glasshouse conditions set at 24° C./16 hr day, 18° C. night, 65% relative humidity, and a photon flux density of approximately 250 μmol quanta m^−2 s^−1 for Lolium multiflorum. The E. indica, D. insularis, S. halepense and E. crus-galli plants were kept in a separate glasshouse bay characterised by a 17 H photoperiod of 180 μmol m^−2 s^−1 with temperatures of 25° C. day and 19° C. night and 65% relative humidity. When the plants were at the two to four-leaf stage, they were treated with the various ACCase-inhibiting herbicides at 0, 15, 30, 60, 120 and 240 g ai ha^−1 in a spray cabinet mounted with a single mobile Teejet flat fan nozzle (11002VS) calibrated to deliver 200 L ha^−1 at 200 kPa. The L. multiflorum populations were treated by a compound of Formula Ic, clodinafop-propargyl, pinoxaden, cycloxydim and clethodim and the warm season grass weeds E. indica, D. insularis, S. halepense and E. crus-galli were sprayed with a Compound Ic and the commonly employed haloxyfop-methyl and clethodim. Three replicate pots were used per population. Plants were assessed for visual damage compared to the untreated control 21 days after application (0=0% damage; 100=100% damage).

[1] = population LM-NTSR-1 (non-target-site resistance), 15 g/ha
[2] = population LM-NTSR-1 (non-target-site resistance), 30 g/ha
[3] = population LM-NTSR-1 (non-target-site resistance), 60 g/ha
[4] = population LM-NTSR-1 (non-target-site resistance), 120 g/ha
[5] = population LM-NTSR-1 (non-target-site resistance), 240 g/ha
[6] = population LM-NTSR-2 (non-target-site resistance), 15 g/ha
[7] = population LM-NTSR-2 (non-target-site resistance), 30 g/ha
[8] = population LM-NTSR-2 (non-target-site resistance), 60 g/ha
[9] = population LM-NTSR-2 (non-target-site resistance), 120 g/ha
[10] = population LM-NTSR-2 (non-target-site resistance), 240 g/ha

Compound	visual damage (biotype C2088R, 15 g/ha) [%]	visual damage (biotype C2088R, 30 g/ha) [%]	visual damage (biotype C2088R, 60 g/ha) [%]	visual damage (biotype C2088R, 120 g/ha) [%]	visual damage (biotype C2088R, 240 g/ha) [%]	visual damage (biotype D2078G, 15 g/ha) [%]	visual damage (biotype D2078G, 30 g/ha) [%]	visual damage (biotype D2078G, 60 g/ha) [%]	visual damage (biotype D2078G, 120 g/ha) [%]	visual damage (biotype D2078G, 240 g/ha) [%]	visual damage (biotype I1781L, 15 g/ha) [%]	visual damage (biotype I1781L, 30 g/ha) [%]	visual damage (biotype I1781L, 60 g/ha) [%]	visual damage (biotype I1781L, 120 g/ha) [%]	visual damage (biotype I1781L, 240 g/ha) [%]	visual damage (biotype Sensitive, 15 g/ha) [%]	visual damage (biotype Sensitive, 30 g/ha) [%]	visual damage (biotype Sensitive, 60 g/ha) [%]	visual damage (biotype Sensitive, 120 g/ha) [%]	visual damage (biotype Sensitive, 240 g/ha) [%]	further results
C#CCOC(=O)[C@@H](C)Oc1ccc(Oc2ncc(Cl)cc2F)cc1 [Clodinafop-propargyl, clodinafop-propargyl]	0	0	0	0	7	0	0	0	0	0	7	7	7	10	33	67	98	100	100	100	visual damage (biotype W1999S, 15 g/ha): 0%; visual damage (biotype W1999S, 30 g/ha): 0%; visual damage (biotype W1999S, 60 g/ha): 0%; visual damage (biotype W1999S, 120 g/ha): 0%; visual damage (biotype W1999S, 240 g/ha): 0%; visual damage (biotype W2027C, 15 g/ha): 0%; visual damage (biotype W2027C, 30 g/ha): 0%; visual damage (biotype W2027C, 60 g/ha): 0%; visual damage (biotype W2027C, 120 g/ha): 0%; visual damage (biotype W2027C, 240 g/ha): 0%; visual damage [1]: 0%; visual damage [2]: 0%; visual damage [3]: 0%; visual damage [4]: 27%; visual damage [5]: 52%; visual damage [6]: 0%; visual damage [7]: 0%; visual damage [8]: 0%; visual damage [9]: 0%; visual damage [10]: 0%
CCCC(=NOCC)C1=C(O)CC(C2CCCSC2)CC1=O (centres unmarked) [Cycloxydim, cycloxydim]	0	0	0	0	0	0	0	0	3	7	0	0	7	13	13	0	0	0	88	100	visual damage (biotype W1999S, 15 g/ha): 0%; visual damage (biotype W1999S, 30 g/ha): 0%; visual damage (biotype W1999S, 60 g/ha): 0%; visual damage (biotype W1999S, 120 g/ha): 0%; visual damage (biotype W1999S, 240 g/ha): 0%; visual damage (biotype W2027C, 15 g/ha): 0%; visual damage (biotype W2027C, 30 g/ha): 0%; visual damage (biotype W2027C, 60 g/ha): 0%; visual damage (biotype W2027C, 120 g/ha): 0%; visual damage (biotype W2027C, 240 g/ha): 50%; visual damage [1]: 0%; visual damage [2]: 0%; visual damage [3]: 0%; visual damage [4]: 3%; visual damage [5]: 60%; visual damage [6]: 0%; visual damage [7]: 0%; visual damage [8]: 0%; visual damage [9]: 0%; visual damage [10]: 0%
